Data on one compound can be found in patent US9326451B1, “Seed pillow for overcoming the limiting factors controlling rangeland reseeding success” (The United States of America, as represented by the …, priority 2012, dated 2016).

Data set [1] concerns bluebunch wheatgrass. Details: species or system Pseudoroegneria spicata. The conditions noted are these: in vivo. The text has this:
(§1) The following example illustrates the ability of seed pillows to protect seeds from soil-active herbicide and use of beneficial biostimulants and super-absorbent polymer. In the study, treatments included untreated seed and four seed pillow treatments, including seed incorporated into a pillow containing 1) activated carbon, 2) activated carbon plus biostimulants, 3) activated carbon plus super-absorbent polymer, and 4) activated carbon plus biostimulants and super-absorbent polymer. Pellets were extruded and cut into 3 mm thick hexagon pellets that were 13 mm in diameter, with each pillow containing eight pure live seeds.
(§2) Bluebunch wheatgrass and cheatgrass were sown in 14×14 cm pots at 500 pure live seeds m-2, and 1000 seeds m-2, respectively. After planting, half of the pots in the study were sprayed with 8 oz/acre of the pre-emergent herbicide imazapic, or left unsprayed. The study was arranged in a randomized block design with 8 replicates per treatment.

Data set [2] relates to cheatgrass (Bromus tectorum L.). Nature of the data set: Example 4: cheatgrass control by imazapic, pot study. The format is in vivo. An excerpt:
(§3) In this study, bluebunch wheatgrass was either left untreated, coated with activated carbon, or incorporated into a seed-pillow containing activated carbon. Source of activated carbon used in the study was Nuchar® powdered activated carbon (MWV, Richmond, Va.). Seeds were coated with activated carbon according to U.S. Patent application 2010/0093535. Seed pillows were formed by mixing dough containing by weight 22% activated carbon, 18.6% diatomaceous earth, 57.9% SELVOL-205 solution with 1% solids, and 1.2% seed. Pellets were extruded and cut into 3 mm thick hexagon pellets that were 13 mm in diameter, with each pillow containing eight pure live seeds.
(§4) Bluebunch wheatgrass and cheatgrass were sown in 14×14 cm pots at 500 pure live seeds m-2, and 1000 seeds m-2, respectively. After planting, pots were sprayed with 4, 6, 8, or 12 oz/acre of the pre-emergent herbicide imazapic, or left unsprayed. The study was arranged in a randomized block design with 8 replicates per treatment.

Data set [3] relates to cheatgrass. Briefly: Example 5: cheatgrass control by imazapic, pot study. It is filed as in vivo, Bromus tectorum. As to conditions: 8 oz/acre, pre-emergent spray after planting.
Source text: as §1, §2

In data set [4] the test system is downy brome. Nature of the data set: Example 6: downy brome control by imazapic, grow-room pot study. It is filed as in vivo. As to the method:
(§5) Soil was obtained from a Wyoming big sagebrush (Artemisia tridentata Nutt. ssp. wyomingensis [Beetle & A. Young] S. L. Welsh)-steppe community type, located at the Northern Great Basin Experimental Range, 16-km southwest of Riley, Oreg. (43° 32′N, 118° 9′ W). Soil on the site has a silt-loam texture and is classified as a fine-loamy, mixed, frigid Aridic Haploxeroll (Soil Survey Staff 2012). Soil was excavated from a maximum depth of 25-cm, with the top 2-cm of soil and litter discarded to remove existing seeds. Excavated soil was used to fill square 14-cm wide by 14-cm deep growing pots that were placed in a grow-room at the Eastern Oregon Agriculture Research Center, located in Burns, Oreg., USA.
Species used in the study included the native bunchgrass ‘Anatone’ bluebunch wheatgrass and the non-native annual weed downy brome. Bluebunch wheatgrass was chosen because it is often a major component of native plant communities in the sage-steppe ecosystem of western North America, is commonly used in rangeland seeding efforts (see e.g., Ogle et al. 2010 Plant guide for bluebunch wheatgrass (Pseudoroegneria spicata). USDA-Natural Resources Conservation Service. Idaho and Washington Plant Materials Program. 5 p). Like many grasses used for restoration, bluebunch wheatgrass is injured by imazapic applied at rates required for downy brome control (see e.g., Shinn and Thill 2004 Weed Technology 18:60-65). Germination potential of bluebunch wheatgrass and downy brome was 92% and 98%, respectively (as tested on blue blotter paper in 130-mm diameter petri dishes, with 25 seeds·dish−1 replicated four times per species).
Bluebunch wheatgrass seeds were untreated, coated with activated carbon, or incorporated into HPPs containing activated carbon. Pots with the sown seeds were sprayed with 0, 70, 105, 140, or 210 g acid equivalent (ae)·ha−1 (0, 4, 6, 8, or 12 oz·acre−1) of the pre-emergent herbicide imazapic (Panoramic 2SL, Alligare LLC, Opelika, Ala.), (3 seed treatments×5 herbicide application rates=15 experimental treatments). The study was arranged in a randomized complete block design with 8 replicates per treatment.
Each pot was seeded with 20 PLS (1000 PLS·m−2) of downy brome, and 10 PLS (500 PLS·m−2) of bluebunch wheatgrass. Two pods were added to each pot designated to receive HPPs. […] Response variables recorded at the conclusion of the study included: 1) plant density, 2) shoot height, and 3) oven dried (65° C. for 72-hrs) aboveground biomass.
Bluebunch wheatgrass and downy brome response data were analyzed separately in SAS (Version 9.3; SAS Institute, Cary, N.C.) using a two-way randomized complete block analysis of variance (ANOVA; Proc Mixed). […] Significance was determined at P<0.05.

For data set [5], the system named is bluebunch wheatgrass. Details: species or system Pseudoroegneria spicata. As to conditions: in vivo.
Source text: as §3, §4
The source holds these as a separate data set.

The test system of data set [6] is 'Anatone' bluebunch wheatgrass. The conditions noted are these: in vivo. As to the method:
as §5
Species used in the study included the native bunchgrass ‘Anatone’ bluebunch wheatgrass and the non-native annual weed downy brome. Bluebunch wheatgrass was chosen because it is often a major component of native plant communities in the sage-steppe ecosystem of western North America, is commonly used in rangeland seeding efforts (see e.g., Ogle et al. 2010 Plant guide for bluebunch wheatgrass (Pseudoroegneria spicata). USDA-Natural Resources Conservation Service. Idaho and Washington Plant Materials Program. 5 p). […]

Setting [7] is: averaged across the study, 47 days.

With `Cc1cnc(C2=NC(=O)C(C)(C(C)C)N2)c(C(=O)O)c1` (centres unmarked) [imazapic], in data set [1], the “effect on non-treated bluebunch wheatgrass seed” value is on record as “effectively controlled”. Moreover, the “control of cheatgrass growth” value in data set [2] (all application rates (4, 6, 8, 12 oz/acre)) was “effectively controlled”. The “cheatgrass growth (FIG. 3C)” value in data set [2] (imazapic at 8 oz/acre, bluebunch seed in activated carbon pillow) is listed as “suppressed”. Further, the “cheatgrass growth (FIG. 3B)” value in data set [2] (soil treated at 10 oz/acre) is given as “growth was arrested”. For the same compound, the “control of cheatgrass growth” value in data set [3] is reported as “effectively controlled”. Further, the “control of downy brome” value in data set [4] (all application rates (70, 105, 140, 210 g ae·ha−1)) was “effectively controlled”. In data set [4] (setting [7]), the “reduction of downy brome biomass” value is 140.2 fold, the “reduction of downy brome density” value was found to be 6.6 fold and the “reduction of downy brome height” value amounted to 8.0 fold. In addition, in data set [5], the “bluebunch wheatgrass growth, untreated seed (FIG. 3B)” value is recorded as “growth was arrested”. Moreover, the “effect on untreated bluebunch wheatgrass” value in data set [6] was “impaired”.
